Target: T1, ASIC1a (Homo sapiens, UniProt P78348)
T1 sequence (P78348 1-528): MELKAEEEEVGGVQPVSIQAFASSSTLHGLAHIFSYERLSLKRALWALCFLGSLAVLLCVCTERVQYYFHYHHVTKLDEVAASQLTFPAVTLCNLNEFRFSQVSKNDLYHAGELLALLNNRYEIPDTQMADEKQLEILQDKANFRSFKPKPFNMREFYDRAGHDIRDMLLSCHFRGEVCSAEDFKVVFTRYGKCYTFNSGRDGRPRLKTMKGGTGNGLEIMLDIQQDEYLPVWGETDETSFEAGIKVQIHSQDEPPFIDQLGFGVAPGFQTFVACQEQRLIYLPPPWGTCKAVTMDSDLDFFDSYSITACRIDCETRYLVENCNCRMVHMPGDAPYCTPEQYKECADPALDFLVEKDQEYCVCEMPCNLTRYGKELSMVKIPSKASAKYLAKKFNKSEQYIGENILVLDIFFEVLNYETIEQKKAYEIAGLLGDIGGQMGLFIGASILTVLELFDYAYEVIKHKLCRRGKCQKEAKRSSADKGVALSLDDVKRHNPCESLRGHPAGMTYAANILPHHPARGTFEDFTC
Assay: Calcium imaging of MES-induced calcium response (FLIPR)
Assay type: cell-based
Design: host or cells: HEK293
Settings: ASIC1a expressing HEK293 cells, MES-induced calcium response; read-out: IC50 (FLIPR)
Experimental: […] Confluency of cells should be 80-90% on day of plating. Cells are rinsed with 10 ml of PBS and cells are re-suspended by addition of culture medium and trituration with a 25 ml pipette.
The cells are seeded at a density of approximately 1×10^6 cells/ml (100 μl/well) in black-walled, clear bottom, 96-well plates pre-treated with 10 mg/l poly-D-lysin (75 μl/well for ≧30 min). Plated cells are allowed to proliferate for 24 h before loading with dye.
Fluo-4/AM (1 mg, Molecular Probes) is dissolved in 912 μl DMSO. The Fluo-4/AM stock solution (1 mM) is diluted with culture medium to a final concentration of 2 μM (loading solution).
The culture medium is aspirated from the wells, and 50 μl of the Fluo-4/AM loading solution is added to each well. The cells are incubated at 37° C. for 30 min.
Following the second wash, 100 μl modified Assay Buffer is added to each well and the fluorescence is measured in FLIPR™ or FlexStation™ (Molecular Devices, USA), or any other suitable equipment known to the skilled in the art.
Temperature: Room temperature (20-22° C.)
First addition: 50 μl test solution at a rate of 30 μl/sec and a starting height of […]
Second addition: 50 μl MES solution (20 mM, 5 mM final concentration) at a rate of 35 μl/sec and a starting height of 150 μl.
Reading intervals: pre-incubation−10 sec×7 and 3 sec×3 antagonist phase−3 sec×7 and 10 sec×12
Addition plates (compound test plate and MES plate) are placed on the right and left positions in the FLIPR tray, respectively. Cell plates are placed in the middle position and the ASIC1a program is effectuated. FLIPR will then take the appropriate measurements in accordance with the interval settings above. Fluorescence obtained after stimulation is corrected for the mean basal fluorescence (in modified Assay Buffer).
The MES-induced peak calcium response, in the presence of test substance, is expressed relatively to the MES response alone. Test substances that block the MES-induced calcium response are re-tested in triplicates.

SMILES	IC50 [µM]
CCOC(=O)c1ccc(-c2cc3c(c4c2CCN(C)C4)NC(=O)C3=NO)cc1 [Compound 1, 4-(3-hydroxyimino-8-methyl-2-oxo-2,3,6,7,8,9-hexahydro-1H-pyrrolo[3,2-h]isoquinolin-5-yl)-benzoic acid ethyl ester]	> 70
CN1CCc2c(-c3ccc(S(=O)(=O)N4CCOCC4)cc3)cc3c(c2C1)NC(=O)C3=NO [Compound 2, 8-methyl-5-[4-(morpholine-4-sulfonyl)-phenyl]-6,7,8,9-tetrahydro-1H-pyrrolo[3,2-h]isoquinoline-2,3-dione 3-oxime]	> 70
CN1CCc2c(-c3ccc(C(=O)N(C)C)cc3)cc3c(c2C1)NC(=O)C3=NO [Compound 3, 4-(3-Hydroxyimino-8-methyl-2-oxo-2,3,6,7,8,9-hexahydro-1H-pyrrolo[3,2-h]isoquinolin-5-yl)-N,N-dimethyl-benzamide]	> 70
CN1CCc2c(-c3ccc(S(=O)(=O)N4CCN(CCO)CC4)cc3)cc3c(c2C1)NC(=O)C3=NO [Compound 4, 5-{4-[4-(2-Hydroxy-ethyl)-piperazine-1-sulfonyl]-phenyl}-8-methyl-6,7,8,9-tetrahydro-1H-pyrrolo[3,2-h]isoquinoline-2,3-dione 3-oxime]	> 70
CN1CCc2c(-c3ccc(S(=O)(=O)N4CCCCC4)cc3)cc3c(c2C1)NC(=O)C3=NO [Compound 5, 8-Methyl-5-[4-(piperidine-1-sulfonyl)-phenyl]-6,7,8,9-tetrahydro-1H-pyrrolo[3,2-h]isoquinoline-2,3-dione 3-oxime]	< 25
CN1CCc2c(-c3cc(F)cc(F)c3)cc3c(c2C1)NC(=O)/C3=N\O [Compound 17]	< 10
CN1CCc2c(-c3ccccc3C(F)(F)F)cc3c(c2C1)NC(=O)/C3=N/O [Compound 18]	< 20
CN1CCc2c(-c3ccccc3F)cc3c(c2C1)NC(=O)/C3=N/O [Compound 19]	< 10
CO/N=C1/C(=O)Nc2c1cc(-c1ccccc1OC)c1c2CN(C)CC1 [Compound 21]	20 to 30
CN1CCc2c(-c3ccccc3Cl)cc3c(c2C1)NC(=O)/C3=N/O [Compound 22]	35 to 45
CN1CCc2c(-c3cc(C(F)(F)F)cc(C(F)(F)F)c3)cc3c(c2C1)NC(=O)/C3=N\O [Compound 23]	40 to 60
CC(=O)c1ccc(-c2cc3c(c4c2CCN(C)C4)NC(=O)/C3=N/O)s1 [Compound 26]	> 70
CC(=O)c1ccccc1-c1cc2c(c3c1CCN(C)C3)NC(=O)/C2=N/O [Compound 32]	> 70
COc1c2c(c(C(C)=O)c3c1OCO3)CCN(C)C2 [Compound 33]	> 70
CCOc1ccccc1-c1cc2c(c3c1CCN(C)C3)NC(=O)/C2=N/O [Compound 37]	< 10
COCCOc1ccccc1-c1cc2c(c3c1CCN(C)C3)NC(=O)/C2=N/O [Compound 38]	< 10
CN1CCc2c(-c3cc(F)ccc3F)cc3c(c2C1)NC(=O)/C3=N/O [Compound 39]	< 10
CCc1ccccc1-c1cc2c(c3c1CCN(C)C3)NC(=O)/C2=N/O [Compound 40]	< 10
COc1cc(F)ccc1-c1cc2c(c3c1CCN(C)C3)NC(=O)/C2=N/O [Compound 42]	< 10

SMILES	IC50 [µM]
CN1CCc2c(-c3ccccc3Oc3ccccc3)cc3c(c2C1)NC(=O)/C3=N/O [Compound 44]	< 10
COc1ncccc1-c1cc2c(c3c1CCN(C)C3)NC(=O)/C2=N/O [Compound 45]	< 10
CN1CCc2c(-c3ccc(F)cc3F)cc3c(c2C1)NC(=O)/C3=N/O [Compound 50]	> 70
Cc1cc(F)ccc1-c1cc2c(c3c1CCN(C)C3)NC(=O)/C2=N/O [Compound 52]	> 70
CN1CCc2c(-c3ccccc3OC(F)(F)F)cc3c(c2C1)NC(=O)/C3=N/O [Compound 53]	> 70
CN1CCc2c(-c3ccc(OC(F)(F)F)cc3)cc3c(c2C1)NC(=O)/C3=N/O [Compound 54]	> 70
CN1CCc2c(-c3ccncc3)cc3c(c2C1)NC(=O)/C3=N/O [Compound 55]	> 70
CN1CCc2c(-c3ccsc3C=O)cc3c(c2C1)NC(=O)/C3=N/O [Compound 56]	> 70
C/C(=N\O)c1c2c(c(O)c3c1OCO3)CN(C)CC2 [Compound 57]	> 70
CN1CCc2c(-c3cccc4c3oc3ccccc34)cc3c(c2C1)NC(=O)/C3=N/O [Compound 58]	> 70
CN1CCc2c(-c3ccccc3)cc3c(c2C1)NC(=O)/C3=N/OC1O[C@H](CO)[C@@H](O)[C@H](O)[C@H]1O (stereo partly shown) [Compound 59]	> 70
COc1c(F)cc(F)cc1-c1cc2c(c3c1CCN(C)C3)NC(=O)/C2=N/O [Compound 60]	> 70
CN1CCc2c(-c3cccc(F)c3F)cc3c(c2C1)NC(=O)/C3=N/O [Compound 68]	< 20
CN1CCc2c(-c3ccoc3)cc3c(c2C1)NC(=O)/C3=N/O [Compound 69]	< 20
CC(=O)N1CCc2c(-c3ccc(Cl)cc3)cc3c(c2C1)NC(=O)C3=NO [Compound 70, 8-Acetyl-5-(4-chloro-phenyl)-6,7,8,9-tetrahydro-1H-pyrrolo[3,2-h]isoquinoline-2,3-dione 3-oxime]	> 70
CS(=O)(=O)N1CCc2c(-c3ccc(Cl)cc3)cc3c(c2C1)NC(=O)C3=NO [Compound 71, 5-(4-Chloro-phenyl)-8-methanesulfonyl-6,7,8,9-tetrahydro-1H-pyrrolo[3,2-h]isoquinoline-2,3-dione 3-oxime]	> 70
C#CN1C(=O)C(=NO)c2cc(-c3ccccc3)c3c(c21)CN(CC)CC3 [Compound 72, 8-Ethyl-1-ethynyl-5-phenyl-6,7,8,9-tetrahydro-1H-pyrrolo[3,2-h]isoquinoline-2,3-dione 3-oxime]	< 10
CCN1CCc2c(-c3ccccc3)cc3c(c2C1)N(CC(=O)OC)C(=O)C3=NO [Compound 73, (8-Ethyl-3-hydroxyimino-2-oxo-5-phenyl-2,3,6,7,8,9-hexahydro-pyrrolo[3,2-h]isoquinolin-1-yl)-acetic acid methyl ester]	< 20

Further lines, results first:

IC50 [µM]	SMILES
< 10	CN1CCc2c(-c3ccc(F)c(Cl)c3)cc3c(c2C1)NC(=O)/C3=N\O [Compound 14]
< 10	Cc1cc(-c2cc3c(c4c2CCN(C)C4)NC(=O)/C3=N/O)ccc1F [Compound 15]
< 10	CN1CCc2c(-c3ccc(F)c(F)c3)cc3c(c2C1)NC(=O)/C3=N\O [Compound 16]
40 to 60	CCOc1cccc(-c2cc3c(c4c2CCN(C)C4)NC(=O)/C3=N\O)c1 [Compound 25]
> 70	CN1CCc2c(-c3cccnc3)cc3c(c2C1)NC(=O)/C3=N/O [Compound 27]
> 70	CN1CCc2c(-c3cccc(C#N)c3)cc3c(c2C1)NC(=O)/C3=N\O [Compound 28]
> 70	CN1CCc2c(-c3cccc([N+](=O)[O-])c3)cc3c(c2C1)NC(=O)/C3=N\O [Compound 29]
> 70	CN1CCc2c(-c3cccc(O)c3)cc3c(c2C1)NC(=O)/C3=N/O [Compound 31]
< 10	COc1ccccc1-c1cc2c(c3c1CCN(C)C3)NC(=O)/C2=N\O [Compound 34]
< 10	CN1CCc2c(-c3cccc(Cl)c3)cc3c(c2C1)NC(=O)/C3=N\O [Compound 35]
< 10	CN1CCc2c(-c3cccc(F)c3)cc3c(c2C1)NC(=O)/C3=N\O [Compound 36]
< 10	Cc1ccccc1-c1cc2c(c3c1CCN(C)C3)NC(=O)/C2=N/O [Compound 41]
< 10	COc1cccc(-c2cc3c(c4c2CCN(C)C4)NC(=O)/C3=N\O)c1 [Compound 43]
40 to 60	CC(C)Oc1cccc(-c2cc3c(c4c2CCN(C)C4)NC(=O)/C3=N\O)c1 [Compound 46]
> 70	CC(=O)c1cccc(-c2cc3c(c4c2CCN(C)C4)NC(=O)/C3=N/O)c1 [Compound 47]
> 70	CN1CCc2c(-c3cccc(N)c3)cc3c(c2C1)NC(=O)/C3=N/O [Compound 48]
> 70	CN1CCc2c(-c3cccc(C(F)(F)F)c3)cc3c(c2C1)NC(=O)/C3=N/O [Compound 49]
> 70	CN1CCc2c(-c3cccc(OC(F)(F)F)c3)cc3c(c2C1)NC(=O)/C3=N/O [Compound 51]

Source: patent US20080004272A1, “Compositions and methods for modulating gated ion channels” (PainCeptor Pharma Corporation, priority 2006, published 2008)
